Reference: patent US8575360B2, “Derivatives of 6,7-dihydro-5H-imidazo[1,2-a]imidazole-3-carboxylic acid amides” (Boehringer Ingelheim International GmbH, priority 2009, dated 2013)

Target: T1, LFA-1 (CD18/CD11a) binding to ICAM-1 (Homo sapiens, UniProt P05107+P20701)
T1 construct: followed by purified LFA-1 (in buffer of 50 mM triethylamine, 150 mM NaCl, 1% beta octylglucoside)
Test: LFA-1/Biotin-sICAM-1 AlphaScreen assay: inhibition of LFA-1 binding to ICAM-1
Settings: 37° C. 90 minutes, highest compound concentration 1 μM
Excerpt: Assay to Determine Inhibition of LFA-1 Binding to ICAM-1
This assay protocol is designed to study the direct antagonism, by a test compound, of the interaction of ICAM-1 with the Leukointegrin CD18/CD11a (LFA-1).
The LFA-1/Biotin-sICAM-1 molecular assay measures the ability of test compounds to inhibit binding of LFA-1 to Biotinylated-sICAM using AlphaScreen technology (Ref: Wilson, J, Rossi, C P, Carboni, S, Fremaux, C, Perrin, D, Soto, C, Kosco-Vilbois, M, and Scheer, A: A Homogeneous 384-Well High-Throughput Binding Assay for a TNF Receptor Using Alphascreen Technology. J Biomol Screen 2003; 8:522-532) that uses TS2/4(anti-LFA-1)-custom conjugated AlphaLisa acceptor beads and streptavidin-coated donor beads from PerkinElmer. The assay was performed in white OptiPlates-384 in a volume of 60 μL using assay buffer (Dulbecco's PBS containing calcium and magnesium, 2 mM MgCl2, 0.1 mM PMSF, 0.1% BSA, pH 7.1). To each well, Biotin-sICAM was added followed by purified LFA-1 (in buffer of 50 mM triethylamine, 150 mM NaCl, 1% beta octylglucoside, 2 mM MgCl2 neutralized to pH with 1M Tris-HCl, pH 7.5). For compound testing, compound was added in 5 uL to the above in 25 uL. LFA-1 and Biotin-sICAM-1 were used at concentrations that would yield a signal to background ratio of 8-10. The highest concentration of compound was 1 μM in 1% DMSO. Positive controls were wells without compound containing LFA-1, while blanks were wells without both compound and LFA-1. Plates were mixed and incubated at 37° C. for 90 minutes. This was followed by addition of 15 μL/well TS2/4-conjugated acceptor beads diluted in PBS containing 0.1% BSA for a final concentration of 10 μg/mL. The plates were mixed and incubated in the dark for 30 minutes at room temperature followed by addition of 15 μL/well streptavidin-coated donor beads diluted in PBS containing 0.1% BSA at a final concentration of 15 μg/mL. The plates were mixed and incubated in the dark for 60 minutes at room temperature and then read on an EnVision Multilabel Reader using AlphaScreen 384-well OptiPlate protocol.

T1 sequence (P20701 26-1170): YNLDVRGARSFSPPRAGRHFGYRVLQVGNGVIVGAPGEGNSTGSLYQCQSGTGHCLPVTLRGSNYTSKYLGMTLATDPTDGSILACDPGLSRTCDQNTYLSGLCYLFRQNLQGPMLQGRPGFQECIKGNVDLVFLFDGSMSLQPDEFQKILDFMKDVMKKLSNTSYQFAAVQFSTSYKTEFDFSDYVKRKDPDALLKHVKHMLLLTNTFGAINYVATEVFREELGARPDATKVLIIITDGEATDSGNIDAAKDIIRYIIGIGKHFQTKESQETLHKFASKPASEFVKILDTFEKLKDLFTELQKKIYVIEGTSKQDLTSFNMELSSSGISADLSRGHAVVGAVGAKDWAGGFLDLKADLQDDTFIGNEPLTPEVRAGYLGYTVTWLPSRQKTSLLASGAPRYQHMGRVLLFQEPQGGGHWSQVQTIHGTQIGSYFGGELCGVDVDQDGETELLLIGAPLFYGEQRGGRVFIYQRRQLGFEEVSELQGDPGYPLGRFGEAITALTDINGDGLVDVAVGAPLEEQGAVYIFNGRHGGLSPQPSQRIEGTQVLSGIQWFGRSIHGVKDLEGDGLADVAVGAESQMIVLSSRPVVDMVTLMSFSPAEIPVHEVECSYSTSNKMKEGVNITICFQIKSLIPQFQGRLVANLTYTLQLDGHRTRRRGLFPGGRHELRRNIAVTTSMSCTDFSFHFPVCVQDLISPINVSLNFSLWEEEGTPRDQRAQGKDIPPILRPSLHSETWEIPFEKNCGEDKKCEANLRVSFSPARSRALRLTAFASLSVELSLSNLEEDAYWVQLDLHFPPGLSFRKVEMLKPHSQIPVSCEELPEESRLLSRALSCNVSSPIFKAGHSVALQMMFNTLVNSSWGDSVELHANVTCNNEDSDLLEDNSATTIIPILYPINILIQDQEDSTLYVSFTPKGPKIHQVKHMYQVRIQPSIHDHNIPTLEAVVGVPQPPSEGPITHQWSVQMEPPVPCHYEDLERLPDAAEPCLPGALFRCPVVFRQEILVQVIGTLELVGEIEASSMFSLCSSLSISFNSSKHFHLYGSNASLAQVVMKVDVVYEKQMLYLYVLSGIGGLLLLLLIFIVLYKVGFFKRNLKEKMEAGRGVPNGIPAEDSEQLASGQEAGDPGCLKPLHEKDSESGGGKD
T1 sequence (P05107 23-769 partner): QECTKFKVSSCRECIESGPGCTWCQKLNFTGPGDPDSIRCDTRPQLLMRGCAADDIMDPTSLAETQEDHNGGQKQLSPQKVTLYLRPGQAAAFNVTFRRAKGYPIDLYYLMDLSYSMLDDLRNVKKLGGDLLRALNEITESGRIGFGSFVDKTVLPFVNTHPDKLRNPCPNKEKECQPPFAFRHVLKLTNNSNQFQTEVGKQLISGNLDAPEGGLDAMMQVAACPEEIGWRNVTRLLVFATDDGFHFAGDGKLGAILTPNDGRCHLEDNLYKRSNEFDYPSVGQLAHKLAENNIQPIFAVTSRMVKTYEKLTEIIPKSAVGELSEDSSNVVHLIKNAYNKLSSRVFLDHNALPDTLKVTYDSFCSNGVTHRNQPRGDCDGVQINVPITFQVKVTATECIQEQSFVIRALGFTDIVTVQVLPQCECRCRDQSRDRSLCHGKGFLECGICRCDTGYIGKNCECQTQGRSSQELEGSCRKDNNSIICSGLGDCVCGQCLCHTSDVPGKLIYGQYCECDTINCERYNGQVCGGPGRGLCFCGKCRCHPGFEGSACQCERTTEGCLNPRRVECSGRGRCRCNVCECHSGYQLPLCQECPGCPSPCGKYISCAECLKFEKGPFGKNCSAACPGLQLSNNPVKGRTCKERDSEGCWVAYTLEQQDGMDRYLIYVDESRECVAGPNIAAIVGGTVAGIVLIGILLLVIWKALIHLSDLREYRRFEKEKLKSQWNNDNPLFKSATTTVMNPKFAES

| IC50 | SMILES |
| --- | --- |
| 1.1 nM | C[C@@]1(Cc2ccc(C#N)cc2)C(=O)N(c2cc(Cl)c(F)c(Cl)c2)c2ncc(C(=O)NC3(C(=O)NC4(c5ccc(-c6ccc(O)cc6)cn5)CC4)CC3)n21 [Compound 2] |
| 1 nM | C[C@@]1(Cc2ccc(C#N)cc2)C(=O)N(c2cc(Cl)c(F)c(Cl)c2)c2ncc(C(=O)NC3(C(=O)NC4(c5ccc6cc(-c7cn[nH]c7)cnc6n5)CCC4)CC3)n21 [Compound 10] |
| 1.2 nM | C[C@@]1(Cc2ccc(C#N)cc2)C(=O)N(c2cc(Cl)c(F)c(Cl)c2)c2ncc(C(=O)NC3(C(=O)NC4(c5ccc(-c6cn[nH]c6)cn5)CC4)CC3)n21 [Compound 11] |
| 1.8 nM | Cn1ncc(-c2ccc(C3(NC(=O)C4(NC(=O)c5cnc6n5[C@](C)(Cc5ccc(C#N)cc5)C(=O)N6c5cc(Cl)c(F)c(Cl)c5)CC4)CC3)nc2)c1C1CC1 [Compound 13] |
| 1.1 nM | Cn1cc(-c2ccc(C3(NC(=O)C4(NC(=O)c5cnc6n5[C@](C)(Cc5ccc(C#N)cc5)C(=O)N6c5cc(Cl)c(F)c(Cl)c5)CC4)CC3)nc2)c(C2CC2)n1 [Compound 14] |
| 1.6 nM | Cn1cc(-c2ccc(C3(NC(=O)C4(NC(=O)c5cnc6n5[C@](C)(Cc5ccc(C#N)cc5)C(=O)N6c5cc(Cl)c(F)c(Cl)c5)CC4)CC3)nn2)c(C2CC2)n1 [Compound 15] |
| 1 nM | C[C@@]1(Cc2ccc(C#N)cc2)C(=O)N(c2cc(Cl)c(F)c(Cl)c2)c2ncc(C(=O)NC3(C(=O)NC4(c5ccc(-c6ccc7nccn7c6)cn5)CC4)CC3)n21 [Compound 16] |
| 1.4 nM | Cc1ccc(-c2ccc(C3(NC(=O)C4(NC(=O)c5cnc6n5[C@](C)(Cc5ccc(C#N)cc5)C(=O)N6c5cc(Cl)c(F)c(Cl)c5)CC4)CC3)nc2)cn1 [Compound 18] |
| 1.5 nM | C[C@@]1(Cc2ccc(OC(F)(F)F)cc2)C(=O)N(c2cc(Cl)c(F)c(Cl)c2)c2ncc(C(=O)NC3(C(=O)NC4(c5ccc(-c6ccc(N)nc6)cn5)CC4)CC3)n21 [Compound 20] |
| 0.61 nM | Cc1ccc(-c2ccc(C(C)NC(=O)C(NC(=O)c3cnc4n3C(C)(Cc3ccc(C#N)cc3)C(=O)N4c3cc(Cl)c(F)c(Cl)c3)C(C)O)nc2)cn1 (stereo not drawn) [Compound 30] |
| 0.51 nM | Cn1cc(-c2cnc(C3(NC(=O)C4(NC(=O)c5cnc6n5[C@](C)(Cc5ccc(C#N)cc5)C(=O)N6c5cc(Cl)c(F)c(Cl)c5)CC4)CC3)nc2)cn1 [Compound 31] |
| 1.4 nM | C[C@@]1(Cc2ccc(C#N)cc2)C(=O)N(c2cc(Cl)c(F)c(Cl)c2)c2ncc(C(=O)NC3(C(=O)NC4(c5ncc(-c6ccc(CO)cc6)cn5)CC4)CC3)n21 [Compound 32] |
| 0.57 nM | C[C@@]1(Cc2ccc(C#N)cc2)C(=O)N(c2cc(Cl)c(F)c(Cl)c2)c2ncc(C(=O)NC3(C(=O)NC4(c5ncc(-c6cn[nH]c6)cn5)CC4)CC3)n21 [Compound 33] |
| 1 nM | C[C@@]1(Cc2ccc(C#N)cc2)C(=O)N(c2cc(Cl)c(F)c(Cl)c2)c2ncc(C(=O)NC3(C(=O)NC4(c5ncc(-c6ccc(O)cc6)cn5)CC4)CC3)n21 [Compound 34] |
| 0.48 nM | Cn1cc(-c2ccc(C3(NC(=O)C4(NC(=O)c5cnc6n5[C@](C)(Cc5ccc(C#N)cc5)C(=O)N6c5cc(Cl)c(F)c(Cl)c5)CC4)CC3)nn2)cn1 [Compound 35] |
| 0.89 nM | C[C@@]1(Cc2ccc(C#N)cc2)C(=O)N(c2cc(Cl)c(F)c(Cl)c2)c2ncc(C(=O)NC3(C(=O)NC4(c5ccc(-c6ccc(CO)cc6)nn5)CC4)CC3)n21 [Compound 37] |
| 1.7 nM | CC1(Cc2ccc(C#N)cc2)C(=O)N(c2cc(Cl)c(F)c(Cl)c2)c2ncc(C(=O)NC3(C(=O)NC4(c5ccc(-c6cnn(C7CC7)c6)cn5)CC4)CC3)n21 (stereo not drawn) [Compound 38] |
| 1.7 nM | Cn1cc(-c2cnc(C3(NC(=O)C4(NC(=O)c5cnc6n5[C@](C)(Cc5ccc(OC(F)(F)F)cc5)C(=O)N6c5cc(Cl)c(F)c(Cl)c5)CC4)CC3)nc2)cn1 [Compound 40, (R)-7-(3,5-Dichloro-4-fluoro-phenyl)-5-methyl-6-oxo-5-(4-trifluoromethoxy-benzyl)-6,7-dihydro-5H-imidazo[1,2-a]imidazole-3-carboxylic acid(1-{1-[5-(1-methyl-1H-pyrazol-4-yl)-pyrimidin-2-yl]-cyclopropylcarbamoyl}-cyclopropyl)-amide] |
| 1.3 nM | C[C@@]1(Cc2ccc(OC(F)(F)F)cc2)C(=O)N(c2cc(Cl)c(F)c(Cl)c2)c2ncc(C(=O)NC3(C(=O)NC4(c5ccc(-c6cn[nH]c6)nn5)CC4)CC3)n21 [Compound 42] |
| 1.2 nM | Cn1cc(-c2ccc(C3(NC(=O)C4(NC(=O)c5cnc6n5[C@](C)(Cc5ccc(C#N)cc5)C(=O)N6c5cc(Cl)cc(C(F)(F)F)c5)CC4)CC3)nc2)cn1 [Compound 51] |

| IC50 | SMILES |
| --- | --- |
| 0.72 nM | C[C@@]1(Cc2ccc(C#N)cc2)C(=O)N(c2cc(Cl)cc(Cl)c2)c2ncc(C(=O)NC3(C(=O)NC4(c5ccc(-c6cccc(C(=O)O)c6)cn5)CC4)CC3)n21 [Compound 52] |
| 0.53 nM | Cc1cc(-c2ccc(C3(NC(=O)C4(NC(=O)c5cnc6n5[C@](C)(Cc5ccc(C#N)cc5)C(=O)N6c5cc(Cl)cc(Cl)c5)CC4)CC3)nc2)ccn1 [Compound 54] |
| 0.67 nM | CN(C)C(=O)c1cccc(-c2ccc(C3(NC(=O)C4(NC(=O)c5cnc6n5[C@](C)(Cc5ccc(C#N)cc5)C(=O)N6c5cc(Cl)cc(Cl)c5)CC4)CC3)nc2)c1 [Compound 56] |
| 0.71 nM | C[C@@]1(Cc2ccc(C#N)cc2)C(=O)N(c2cc(Cl)cc(Cl)c2)c2ncc(C(=O)NC3(C(=O)NC4(c5ccc(-c6ccc(F)nc6)cn5)CC4)CC3)n21 [Compound 58] |
| 0.96 nM | Cc1n[nH]c(C)c1-c1ccc(C2(NC(=O)C3(NC(=O)c4cnc5n4[C@](C)(Cc4ccc(C#N)cc4)C(=O)N5c4cc(Cl)cc(Cl)c4)CC3)CC2)nc1 [Compound 60] |
| 1 nM | C[C@@]1(Cc2ccc(C#N)cc2)C(=O)N(c2cc(Cl)cc(Cl)c2)c2ncc(C(=O)NC3(C(=O)NC4(c5ccc(-c6ccc(Cl)nc6)cn5)CC4)CC3)n21 [Compound 61] |
| 1.1 nM | Cc1ccc(-c2ccc(C3(NC(=O)C4(NC(=O)c5cnc6n5[C@](C)(Cc5ccc(C#N)cc5)C(=O)N6c5cc(Cl)cc(Cl)c5)CC4)CC3)nc2)cn1 [Compound 62] |
| 0.53 nM | C[C@@H](NC(=O)C1(NC(=O)c2cnc3n2[C@](C)(Cc2ccc(C#N)cc2)C(=O)N3c2cc(Cl)c(F)c(Cl)c2)CC1)c1ccc(-c2ccc(CO)nc2)cn1 [Compound 65] |
| 1.3 nM | C[C@@]1(Cc2ccc(C#N)cc2)C(=O)N(c2cc(Cl)cc(Cl)c2)c2ncc(C(=O)NC3(C(=O)NC4(c5ccc(-c6cccc(C(N)=O)c6)cn5)CC4)CC3)n21 [Compound 66] |
| 0.6 nM | C[C@@]1(Cc2ccc(C#N)cc2)C(=O)N(c2cc(Cl)c(F)c(Cl)c2)c2ncc(C(=O)NC3(C(=O)NC4(c5ccc(-c6ccncc6)cn5)CC4)CC3)n21 [Compound 68] |
| 0.8 nM | C[C@@]1(Cc2ccc(C#N)cc2)C(=O)N(c2cc(Cl)c(F)c(Cl)c2)c2ncc(C(=O)NC3(C(=O)NC4(c5ccc(-c6cccc(C(N)=O)c6)cn5)CC4)CC3)n21 [Compound 70] |
| 1.2 nM | Cn1cc(-c2ccc(C3(NC(=O)C4(NC(=O)c5cnc6n5[C@](C)(Cc5ccc(Br)cc5)C(=O)N6c5cc(Cl)cc(Cl)c5)CC4)CC3)nc2)cn1 [Compound 75] |
| 1.2 nM | C[C@H](NC(=O)c1cnc2n1[C@](C)(Cc1ccc(C#N)cc1)C(=O)N2c1cc(Cl)c(F)c(Cl)c1)C(=O)NC1(c2ncc(-c3ccc(CO)nc3)cn2)CC1 [Compound 78] |
| 0.89 nM | C[C@H](NC(=O)c1cnc2n1[C@](C)(Cc1ccc(C#N)cc1)C(=O)N2c1cc(Cl)c(F)c(Cl)c1)C(=O)NC1(c2ccc(-c3cnn(C)c3)cn2)CC1 [Compound 88] |
| 0.28 nM | C[C@H](NC(=O)c1cnc2n1[C@](C)(Cc1ccc(C#N)cc1)C(=O)N2c1cc(Cl)c(F)c(Cl)c1)C(=O)NC1(c2ccc(-c3ccc(CO)nc3)nc2)CC1 [Compound 90] |
| 0.7 nM | C[C@H](NC(=O)c1cnc2n1[C@](C)(Cc1ccc(C#N)cc1)C(=O)N2c1cc(Cl)c(F)c(Cl)c1)C(=O)NC1(c2ccc(-c3cn[nH]c3)cn2)CC1 [Compound 93] |
| 1.3 nM | C[C@@]1(Cc2ccc(C#N)cc2)C(=O)N(c2cc(Cl)c(F)c(Cl)c2)c2ncc(C(=O)NC3(C(=O)NC4(c5ccc(-c6ccc(CO)cc6)cn5)CC4)CC3)n21 [Compound 100] |
| 1.1 nM | Cc1nn(C)c(C)c1-c1ccc(C2(NC(=O)C3(NC(=O)c4cnc5n4[C@](C)(Cc4ccc(C#N)cc4)C(=O)N5c4cc(Cl)c(F)c(Cl)c4)CC3)CC2)nc1 [Compound 101] |
| 1.1 nM | C[C@@]1(Cc2ccc(OC(F)(F)F)cc2)C(=O)N(c2cc(Cl)c(F)c(Cl)c2)c2ncc(C(=O)NC3(C(=O)NC4(c5ccc(-c6ccc(=O)[nH]c6)cn5)CC4)CC3)n21 [Compound 108] |
